{"source": "patent US20040141944A1", "about": "“Inhibition of xenoreactive antibodies” (priority 1998, published 2004)", "key": {"[1]": {"tested_on": "xenoreactive IgG (X IgG) and xenoreactive IgM (X IgM)", "assay": "effect of TPC on xenoreactive antibody levels in cynomolgous monkeys", "type": "in vivo", "procedure": "TPC molecule 410S was prepared as described in Example 5. 410S or PEG control was administered to cynomolgous monkeys in doses of either 50 mg or 250 mg every 3 days for 2 weeks. Blood was drawn for serum before and after each administration. During the subsequent 2 week period, blood was drawn each Monday and Friday. Serum samples were analyzed for xenoreactive IgG (X IgG) and xenoreactive IgM (X IgM)."}, "xenoreactive antibodies": {"tested_on": "xenoreactive antibodies", "assay": "TPC treatment with discordant xenotransplant (pig heart) in cynomolgous monkeys", "type": "in vivo", "procedure": "The TPC molecule 410S was prepared as described above in Example 5. Three monkeys received 250 mg TPC (# 19-97, 18-97, 21-97), and two monkeys received 250 mg control vehicle (#28-97, 23-97) every 3 days for 2 weeks (total 6 doses/animal) via IV infusion. 250 mg/5 mL per vial was supplied as sterile solution to be injected into 50 ML sterile physiological saline in an IV bag and administered IV at a rate of approximately 2-3 mLs/min. Prior to administration and 15-60 minutes after administration was complete, 1-3 mLs of blood was drawn for serum from each monkey at a site distant from the site of administration. On the day of the 6th dose, each monkey underwent a heterotopic heart transplant following drug infusion. A heart from a transgenic pig which expresses human CD59 and human CD55 was placed in the abdominal position as described (Byrne, et al., 1997, Transplantation 63:149-155) and remained in place up to 6 hours before being explanted.\nFollowing the transplant and explant, the monkeys continued infusion of either TPC or control vehicle, as above, once per day for 9 days. Blood was drawn for serum analysis before and after each administration. The monkeys were monitored for at least 15 days after cessation of TPC administration, and blood was drawn 2 times per week for serum analysis. One monkey died 2 days post-transplant."}}}
{"substance": "(αGal(1,3)Gal β 1-4 GlcNAc)4-PEG [Example 410S]", "values": [{"measurement": "effect on anti-Gal IgG levels", "setting": "[1]; 50 mg and 250 mg doses, compared with the IgM effect", "value": "the effect was not as dramatic"}, {"measurement": "anti-Gal IgM level, % of the initial level", "setting": "[1]; 50 mg animals, 15 days post-treatment", "value": "~40", "unit": "%"}, {"measurement": "anti-Gal IgM level, % of the initial level", "setting": "[1]; 50 mg dose every 3 days, after 6 TPC treatments", "value": "approximately 15%"}, {"measurement": "anti-Gal IgM level, % of the predosing level", "setting": "[1]; 250 mg animals, 15 days post-treatment", "value": 15, "unit": "%"}, {"measurement": "anti-Gal IgM level, % of the initial level", "setting": "[1]; 250 mg dose every 3 days, after 6 TPC treatments", "value": "approximately 5%"}, {"measurement": "xenoreactive antibody levels", "setting": "xenoreactive antibodies; 250 mg TPC, during the 9 days of TPC administration following explant of the pig heart", "value": "maintained low levels"}, {"measurement": "XNA levels", "setting": "xenoreactive antibodies; following cessation of TPC", "value": "rose, but not as dramatically as in the non-TPC-treated control"}]}
